Measurements reported in patent US11241394B2, “Treating vasculature related diseases or disorders using nanoparticles” (The Regents of the University of California, priority 2015, dated 2022).

System: balloon-denuded rats (coronary restenosis model)
Experiment: Treatment of experimental rat model of coronary restenosis
Assay type: in vivo, Sprague-Dawley rats
Details: 0.3 mg kg^-1 docetaxel i.v. on day 0 and 5, arteries collected day 14, n=6
Procedure: Sprague-Dawley rats following angioplasty-induced arterial denudation were injected intravenously with 1 mL of 5 mg mL^−1 docetaxel-loaded PNPs in 10% sucrose at a docetaxel dose of 0.3 mg kg^−1 on day 0 and day 5. As controls, animals receiving PBS, free docetaxel, and empty PNPs were prepared. On day 14, animals were euthanized with an overdose of ketamine-xylazine cocktail and perfused with PBS and 4% paraformaldehyde (PFA) at a pressure of 120-140 mm Hg. Segments of left and right carotid arteries were carefully dissected out, and the PFA-fixed carotid arteries were embedded with Tissue-Tek OCT compound (VWR International) in a tissue base mold and slowly submerged into pre-chilled 2-methyl butane until frozen completely. The frozen tissue block was then immediately stored at −80° C. until sectioning. Serial sectioning (15 μm per section) was performed with a Cyrotome cryostat machine (Leica), and the tissue sections were placed on polylysine-treated glass slides. Tissue sections on slides were dried at room temperature for 30 min before staining. For immunohistochemistry, frozen sections on slides were first washed with PBS to remove residual OCT medium and then subjected to standard hematoxylin and eosin (H&E) staining. Areas of intima and media were analyzed using Image J. Luminal obliteration is defined as the intima area/the area within the internal elastic lamina. […]

`CC(=O)O[C@@]12CO[C@@H]1C[C@H](O)[C@@]1(C)C(=O)[C@H](O)C3=C(C)[C@@H](OC(=O)[C@H](O)[C@@H](NC(=O)OC(C)(C)C)c4ccccc4)C[C@@](O)([C@@H](OC(=O)c4ccccc4)[C@H]21)C3(C)C` [free docetaxel, docetaxel] was tested, and the “intima-to-media ratio (I/M)” value was 0.76±0.18 and the luminal obliteration was 33.6%.
